{
  "source": "patent US4418068A",
  "about": "“Antiestrogenic and antiandrugenic benzothiophenes” (Eli Lilly and Company, priority 1981, dated 1983)",
  "key": {"estrogenic response [1]": {"tested_on": "estrogenic response", "assay": "Estrogenic Response Test, immature mice (uterine weight)", "type": "in vivo, immature 11-13 g. mice", "conditions": "Experiment D, s.c.", "procedure": "The first test reported below is used to determine the estrogenic potency of compounds. It is well known that many compounds having antiestrogenic activity also, typically, have estrogenic activity. As has been explained, estrogenic activity is a liability in an antiestrogen, and thus it is important to identify antiestrogens having a minimum amount of estrogenic activity. This test was conducted with immature 40-45 g. female rats, immature 11-13 g. mice, and adult ovariectomized mice. The rats were tested in groups of six, and mice in groups of ten. All of the laboratory animals were from standardized strains and were equilibrated to the laboratory before the test started. Each test was begun by administering the test compound daily for three days, as a subcutaneous injection or by oral gavage, as indicated below in the reports of individual experiments. Untreated control animals were included in each experiment, along with animals to which estradiol was administered subcutaneously. The estradiol-treated animals provided positive controls, showing the physiological effect of a potent estrogen on the individual group of animals used in the experiment. […] The test animals were treated for three days and sacrificed on the fourth day, and the uteri were removed, freed of extraneous tissue, and blotted with paper towels. The uteri were weighed to the nearest 0.1 mg. The tables below report the results of representative experiments. The doses of estradiol and of the compound of this invention are given as the total of the three daily doses. The uterine weights are given, in mg., as the means of all of the organ weights of the animals in a group. Compounds are referred to by their example numbers above."}, "estrogenic response [2]": {"tested_on": "estrogenic response", "assay": "Regression Test: reversal of established estrogenic response (uterine weight)", "type": "in vivo, immature rats", "conditions": "estradiol 0.1 mcg./day 3 days", "procedure": "The following test was carried out to determine if the compounds of this invention could reverse an estrogenic response, when administration of the compound was started after the estrogenic response had become established.\nThe test animals were immature rats, and all administrations were by subcutaneous injection.\nThe mean uterine weights of these groups of animals, respectively, were 97.9, 97.3, 119.9 and 112.3 mg.\nThe animals were sacrificed on the fifth day and their mean uterine weight was 56.4 mg.\nThe animals were sacrificed on the seventh day and their mean uterine weight was 57.0 mg."}, "[3]": {"tested_on": "DMBA-induced mammary tumors", "assay": "Tests Against DMBA-Induced mammary tumors", "type": "in vivo, adult female virgin rats", "excerpt": "Mammary tumors were induced in adult female virgin rats by a single 20-mg. oral dose of 7,12-dimethylbenzanthracene. Within about six weeks, visible and palpable tumors were present in the mammary tissue of the rats, and the rats were allocated into treatment and control groups in such a way that each group contained animals having approximately the same size and number of tumors. The size of the tumors was estimated by measuring their cross-sectional area. […]\n[…] The treated animals received 1 mg./kg. per day of 6-methoxy-2-(4-hydroxyphenyl)-3-[4-(2-piperidinoethoxy)benzoyl]benzo[b]thiophene, hydrochloride, as a subcutaneous injection in corn oil. The animals were not ovariectomized at the end of the experiment."}, "[4]": {"tested_on": "androgen-stimulated prostate growth", "assay": "Anti-Androgen Test, adult castrated male rats (ventral prostate weight)", "type": "in vivo", "conditions": "for Mean Prostate Weight: Experiment A", "procedure": "The antiandrogenic property of the compounds was evaluated in the following tests, in which the compound of Example 3 was used again.\nThe animals used in this test were adult male rats having a body weight which averaged about 330 g. when the experiment ended. All of the animals to be used in the experiment were castrated by the scrotal route, and were held untreated for 3 days. On the fourth day, subcutaneous administration of 0.1 mg./day of an exogenous androgen, testosterone propionate, was begun, and was continued for seven consecutive days. An untreated control group of animals received injections of 0.1 ml./day of corn oil as a blank treatment. The compound of this invention was administered orally or subcutaneously to the treated animals in 0.1 ml. of corn oil, at the same time that the androgen was administered. The animals were sacrificed 24 hours after the last injection of testosterone propionate, the ventral prostate glands were removed and weighed, and the mean of the weights of each treatment group was reported. The table below reports the mean weights resulting from administration of various doses of the compound along with androgen.\nEach treatment group of animals in this experiment consisted of seven to nine animals, except for the untreated control group, which contained twelve animals."}, "[5]": {"conditions": "Experiment B, 20 mg./kg./day, orally, four weeks"}, "[6]": {"conditions": "Experiment C, low dose 20 mg./kg./day, four weeks"}},
  "data": [
    {"smiles": "O=C(c1ccc(OCCN2CCCCC2)cc1)c1c(-c2ccc(O)cc2)sc2cc(O)ccc12", "note": "[Example 3, 6-hydroxy-2-(4-hydroxyphenyl)-3-[4-(2-piperidinoethoxy)benzoyl]benzo[b]thiophene]", "values": [
      {"measurement": "Uterine weight", "setting": "estrogenic response [1]; total dose 3 mg.", "result": 14.6, "unit": "mg"},
      {"measurement": "Uterine weight", "setting": "estrogenic response [1]; total dose 0.03 mcg.", "result": 19.0, "unit": "mg"},
      {"measurement": "Uterine weight", "setting": "estrogenic response [1]; total dose 0.3 mcg.", "result": 19.3, "unit": "mg"},
      {"measurement": "Uterine weight", "setting": "estrogenic response [1]; total dose 3 mcg.", "result": 22.9, "unit": "mg"},
      {"measurement": "Uterine weight", "setting": "estrogenic response [1]; total dose 30 mcg.", "result": 23.9, "unit": "mg"},
      {"measurement": "Uterine weight", "setting": "estrogenic response [1]; total dose 300 mcg.", "result": 19.3, "unit": "mg"},
      {"measurement": "mean uterine weight", "setting": "estrogenic response [2]; then estradiol + 1 mg. compound s.c. on following five days, sacrificed ninth day", "result": 50.7, "unit": "mg"},
      {"measurement": "mean uterine weight", "setting": "estrogenic response [2]; then estradiol + 1 mg. compound s.c. on following three days, sacrificed seventh day", "result": 57.0, "unit": "mg"},
      {"measurement": "mean uterine weight", "setting": "estrogenic response [2]; then estradiol + 1 mg. compound s.c. on fourth day, sacrificed fifth day", "result": 56.4, "unit": "mg"},
      {"measurement": "average total cross-sectional area of tumor", "setting": "[3]; Experiment A, oral 0.1, 5, 10, 20 mg./kg./day in successive two-week periods, 8 weeks", "result": 345, "unit": "square millimeters"},
      {"measurement": "total cross-sectional area of tumor, lower end of range", "setting": "[3]; Experiment A, oral, 8 weeks", "result": "complete regression"},
      {"measurement": "total cross-sectional area of tumor, upper end of range", "setting": "[3]; Experiment A, oral, 8 weeks, one animal, tumors not estrogen-dependent", "result": "≤ 1550", "unit": "sq. mm."},
      {"measurement": "animals with completely regressed tumors", "setting": "[3]; [5]", "result": "one of the compound-treated animals had completely regressed"},
      {"measurement": "average total tumor area", "setting": "[3]; [5]", "result": 152, "unit": "square millimeters"},
      {"measurement": "growth of the large tumor (668 square millimeters)", "setting": "[3]; Experiment B, 20 mg./kg./day, orally, since second week, shrank after ovariectomy", "result": "its growth had been checked, and it had not significantly grown"},
      {"measurement": "average tumor area", "setting": "[3]; Experiment C, high dose 40 mg./kg./day, four weeks", "result": 304, "unit": "square millimeters"},
      {"measurement": "average cross-sectional tumor area", "setting": "[3]; [6]", "result": 441, "unit": "square millimeters"},
      {"measurement": "tumor area, lower end of range", "setting": "[3]; [6]", "result": "no tumors present"},
      {"measurement": "tumor area, upper end of range", "setting": "[3]; [6]", "result": "≤ 1907", "unit": "square millimeters"},
      {"measurement": "Mean Prostate Weight", "setting": "[4]; 0.01 mg./day, S.C. + testosterone propionate 0.1 mg./day", "result": 253, "unit": "mg"},
      {"measurement": "Mean Prostate Weight", "setting": "[4]; 0.01 mg./day, oral + testosterone propionate 0.1 mg./day", "result": 192, "unit": "mg"},
      {"measurement": "Mean Prostate Weight", "setting": "[4]; 0.1 mg./day, S.C. + testosterone propionate 0.1 mg./day", "result": 235, "unit": "mg"},
      {"measurement": "Mean Prostate Weight", "setting": "[4]; 0.1 mg./day, oral + testosterone propionate 0.1 mg./day", "result": 267, "unit": "mg"},
      {"measurement": "Mean Prostate Weight", "setting": "[4]; 1 mg./day, S.C. + testosterone propionate 0.1 mg./day", "result": 201, "unit": "mg"},
      {"measurement": "Mean Prostate Weight", "setting": "[4]; 1 mg./day, oral + testosterone propionate 0.1 mg./day", "result": 242, "unit": "mg"},
      {"measurement": "effect on androgen-stimulated prostate growth", "setting": "[4]; conclusion in words, Experiments A-C", "result": "inhibited a large part of the abnormal prostate growth"}
    ]}
  ]
}
